Active and inactive are the calls of the source.
Key:
[1] = Luminescence Cell-Based Dose Response HTS to Identify Inhibitors of 5'UTR Stem-Loop Driven Prion Protein mRNA Translation in H4 Neuroglioblastoma Cells. [Related pubchem assays: 1827 (Project Summary), 1813 (Primary HTS)]; type: functional
[2] = target: T1, Luciferin 4-monooxygenase (Photinus pyralis, UniProt P08659); assay: Counter Screen for Luciferase-based Assay Positives. [Related pubchem assays: 620, 618, 411 ]
[3] = target: T1, Luciferin 4-monooxygenase; assay: inhibition of purified Photinus pyralis luciferase – biochemical, luminescence, dose response (AID 1891)
[4] = Luminescence Cell-Based Dose Confirmation HTS to Identify Inhibitors of Platelet Dense Granule Release. [Related pubchem assays: 1663 (Primary HTS), 1678 (Summary of Project)]; type: functional
[5] = tested on: HT-1080; assay: HT1080 cell viability loss – fluorescence readout (AID 620); type: functional, cell-based; details: Homo sapiens
[6] = alpha-synuclein stem-loop luciferase translation blockers – H4 neuroglioma cells, luminescence, confirmation (AID 1988); type: functional, cell-based
[7] = HPDE-C7 pancreatic duct cell viability loss – fluorescence, HTS (AID 430); type: functional, cell-based; details: Homo sapiens
[8] = viability loss of HPDE-C7K cells – cell-based, fluorescence, HTS, primary screen (AID 431); type: functional; details: Homo sapiens
[9] = target: Voltage-dependent T-type calcium channel subunit alpha-1H (Homo sapiens, UniProt O95180); type: functional;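 further: channel activity triggered by adding a high calcium stimulation buffer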
[10] = target: Mitogen-activated protein kinase 10 (Homo sapiens, UniProt P53779); assay: Dose response biochemical screening assay for inhibitors of c-Jun N-Terminal Kinase 3 (JNK3). [Related pubchem assays: 746 ]
[11] = viability of PTEN-deleted HCT116 cells – cell-based, HCT116 PTEN knockout, dose response (AID 1047); type: functional;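 further: HCT116 colon tumor cells with PTEN knocked out; cells exposed to compound for 60 hours before readout; potency for loss of cell viability measured by luminescence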
[12] = target: T2, Calpain-2 catalytic subunit (Sus scrofa, UniProt P43367); assay: m-calpain protease blockers, concentration series – biochemical, fluorogenic peptide substrate, dose response (AID 1420); type: functional
T2 sequence (P43367 whole entry): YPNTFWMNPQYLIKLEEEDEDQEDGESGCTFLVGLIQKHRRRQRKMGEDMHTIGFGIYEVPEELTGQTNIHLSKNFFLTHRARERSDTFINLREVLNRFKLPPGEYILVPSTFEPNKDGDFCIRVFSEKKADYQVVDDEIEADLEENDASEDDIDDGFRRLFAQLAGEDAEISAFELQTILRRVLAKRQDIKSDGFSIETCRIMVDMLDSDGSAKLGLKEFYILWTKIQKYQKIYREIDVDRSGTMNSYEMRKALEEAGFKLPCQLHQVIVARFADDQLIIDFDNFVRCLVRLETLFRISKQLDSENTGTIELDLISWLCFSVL

[13] = viability of HCT116 lacking mutant beta-catenin – cell-based, human colon tumor, dose response (AID 1045); type: functional;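 further: HCT116 colon tumor cells with beta catenin knocked out; cells exposed to compound for 60 hours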
[14] = A Cell Based Secondary Assay To Explore Cytotoxicity of Compounds that Sensitize Mycobacterium Tuberculosis to Beta-Lactam Antibiotics.; type: functional
[15] = target: NAD-dependent protein deacylase sirtuin-5, mitochondrial (Homo sapiens, UniProt Q9NXA8); assay: sirtuin-5 deacylation blockers, concentration series – biochemical, fluorescence imaging, cherry-pick, set 5, dose response (AID 720591);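 further: desuccinylation of succinyl peptide AMC substrate read as fluorescence after trypsin release; potency of inhibitors that lower fluorescence and may act on trypsin instead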
[16] = target: Estrogen receptor beta (Homo sapiens, UniProt Q92731);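 further: recombinant ER-beta bound to coactivator SRC1 peptide in presence of estradiol agonist; inhibitors block coactivator peptide binding and lower the FRET signal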
[17] = target: T3, Aryl hydrocarbon receptor (Homo sapiens, UniProt P35869); assay: Luminescence-based cell-based high throughput dose response assay for activators of the Aryl Hydrocarbon Receptor (AHR). [Related pubchem assays: 2796 (Primary screen (AHR activators in singlicate)), 2845 (Confirmation screen (AHR activators in triplicate)), 434939 (Counterscreen (PXR activators in triplicate)), 2804 (Summary (AHR activators))]; type: ADME
T3 sequence (P35869 whole entry): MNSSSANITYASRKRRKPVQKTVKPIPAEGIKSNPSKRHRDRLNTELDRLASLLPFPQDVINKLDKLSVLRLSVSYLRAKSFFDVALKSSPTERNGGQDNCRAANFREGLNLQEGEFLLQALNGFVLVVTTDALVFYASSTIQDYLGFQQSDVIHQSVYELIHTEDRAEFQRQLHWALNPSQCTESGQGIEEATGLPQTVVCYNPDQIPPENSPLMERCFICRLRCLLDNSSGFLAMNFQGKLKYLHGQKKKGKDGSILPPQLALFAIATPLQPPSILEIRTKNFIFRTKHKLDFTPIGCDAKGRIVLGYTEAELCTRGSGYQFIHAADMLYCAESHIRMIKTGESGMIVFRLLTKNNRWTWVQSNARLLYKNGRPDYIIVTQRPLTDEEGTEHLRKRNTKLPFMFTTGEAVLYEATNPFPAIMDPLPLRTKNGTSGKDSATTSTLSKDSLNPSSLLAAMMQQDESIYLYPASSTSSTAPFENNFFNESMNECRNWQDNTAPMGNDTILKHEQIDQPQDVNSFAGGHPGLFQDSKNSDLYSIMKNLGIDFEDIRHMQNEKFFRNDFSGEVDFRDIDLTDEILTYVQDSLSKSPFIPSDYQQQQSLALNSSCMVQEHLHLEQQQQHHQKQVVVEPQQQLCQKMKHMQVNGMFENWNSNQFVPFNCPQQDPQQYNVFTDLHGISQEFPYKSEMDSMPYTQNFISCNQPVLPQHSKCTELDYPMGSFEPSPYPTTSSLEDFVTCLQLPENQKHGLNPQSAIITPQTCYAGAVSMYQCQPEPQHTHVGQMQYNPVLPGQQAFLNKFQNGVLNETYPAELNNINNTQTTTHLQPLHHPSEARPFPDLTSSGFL

[18] = target: Peroxisome proliferator-activated receptor gamma/Nuclear receptor coactivator 2 (Homo sapiens, UniProt P37231); type: functional;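 further: agonist potency for raising coactivator recruitment to the receptor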
[19] = target: Peroxisome proliferator-activated receptor gamma/Nuclear receptor coactivator 3 (Homo sapiens, UniProt P37231); type: functional;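 further: agonist potency for raising coactivator recruitment to the receptor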
[20] = target: Peroxisome proliferator-activated receptor gamma/Nuclear receptor coactivator 1 (Homo sapiens, UniProt P37231); type: functional;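 further: agonist potency as compounds enhance coactivator SRC-1 recruitment to PPARgamma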
[21] = target: T4, Streptokinase A (Streptococcus pyogenes serotype M1, UniProt P10520); assay: viability-normalized secreted streptokinase activity reduction – plasminogen activation absorbance, OD405, dose response (AID 1914); type: functional, Streptococcus pyogenes M1 GAS;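 further: secreted streptokinase activity via plasminogen activation per viability signal from cell pellet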
T4 sequence (P10520 whole entry): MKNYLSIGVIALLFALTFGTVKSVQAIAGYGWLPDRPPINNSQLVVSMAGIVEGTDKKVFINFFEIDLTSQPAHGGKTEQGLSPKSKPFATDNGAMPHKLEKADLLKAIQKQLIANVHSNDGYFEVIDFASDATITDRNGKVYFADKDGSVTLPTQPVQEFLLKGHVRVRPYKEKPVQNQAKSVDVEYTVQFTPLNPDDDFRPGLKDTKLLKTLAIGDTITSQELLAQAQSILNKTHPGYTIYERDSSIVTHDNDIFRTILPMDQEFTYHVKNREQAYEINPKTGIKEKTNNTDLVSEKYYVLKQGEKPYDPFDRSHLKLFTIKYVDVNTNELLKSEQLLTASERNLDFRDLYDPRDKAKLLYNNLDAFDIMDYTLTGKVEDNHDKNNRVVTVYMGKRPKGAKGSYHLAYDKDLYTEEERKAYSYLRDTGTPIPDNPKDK

[22] = tested on: Streptococcus sp. 'group A'; assay: Streptococcus pyogenes SK(-)GAS viability under kanamycin – luminescence, BacTiterGlo, confirmation, counter-screen for streptokinase expression inhibitor project, dose response (AID 1900); type: functional, organism-based
[23] = tested on: Streptococcus; assay: GAS UMAA2166 growth inhibition – luminescence, BacTiterGlo, counter-screen for streptokinase expression inhibitor project, dose response (AID 1915); type: functional, organism-based;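 further: potency for reduction of bacterial viability or growth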
[24] = loss of viability in HepG2 cells – cell-based, CellTiter-Glo, cherry-picked, cytotoxicity control for Shn3 inhibitor project, dose response (AID 624134); type: functional
[25] = non-specific 3'UTR reporter inhibition in Clone20-Shn3RL – cell-based, Renilla luciferase, cherry-picked, counter-screen for Shn3 inhibitor project, dose response (AID 624133); type: functional
[26] = target: T5, Caspase-6 (Homo sapiens, UniProt P55212); assay: inhibition of CASP6 peptide cleavage – biochemical, VEID-R110 fluorescence, cherry-pick, dose response (AID 720632)
T5 sequence (P55212 whole entry): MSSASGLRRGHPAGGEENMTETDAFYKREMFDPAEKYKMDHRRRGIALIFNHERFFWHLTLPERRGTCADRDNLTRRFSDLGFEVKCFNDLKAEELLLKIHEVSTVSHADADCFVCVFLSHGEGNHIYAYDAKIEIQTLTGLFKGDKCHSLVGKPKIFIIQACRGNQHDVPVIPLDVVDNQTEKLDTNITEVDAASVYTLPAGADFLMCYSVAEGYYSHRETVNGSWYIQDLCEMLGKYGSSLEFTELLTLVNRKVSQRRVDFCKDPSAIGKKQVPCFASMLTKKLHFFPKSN

[27] = reduction of Shn3 3'UTR-driven luciferase in osteoblasts – cell-based, Clone20 osteoblasts, firefly luciferase, cherry-picked, dose response (AID 624132); type: functional;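 further: firefly luciferase luminescence from reporter carrying the Shn3 3'UTR in osteoblasts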
[28] = target: T6, Cytochrome P450 1A2 (Homo sapiens, UniProt P05177);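 further: PubChem cytochrome P450 panel assay, CYP1A2 panel member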
T6 sequence (P05177 whole entry): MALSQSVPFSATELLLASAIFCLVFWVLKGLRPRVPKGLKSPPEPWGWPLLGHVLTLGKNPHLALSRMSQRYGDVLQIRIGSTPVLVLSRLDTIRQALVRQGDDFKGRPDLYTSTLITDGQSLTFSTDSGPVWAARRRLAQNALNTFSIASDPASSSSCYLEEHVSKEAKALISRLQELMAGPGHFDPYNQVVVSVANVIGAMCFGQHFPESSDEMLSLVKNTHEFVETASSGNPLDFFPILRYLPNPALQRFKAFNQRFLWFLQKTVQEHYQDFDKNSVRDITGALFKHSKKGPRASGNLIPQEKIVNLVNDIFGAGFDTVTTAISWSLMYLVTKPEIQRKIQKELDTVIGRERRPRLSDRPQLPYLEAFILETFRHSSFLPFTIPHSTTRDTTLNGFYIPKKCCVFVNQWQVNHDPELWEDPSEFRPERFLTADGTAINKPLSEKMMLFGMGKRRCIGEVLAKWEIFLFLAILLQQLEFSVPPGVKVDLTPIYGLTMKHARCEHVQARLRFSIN

[29] = target: Cytochrome P450 2C19 (Homo sapiens, UniProt P33261); assay: Cytochrome panel assay with activity outcomes. Panel member name: p450-cyp2c19 Compounds with AC50 equal or less than 10 uM are considered active; type: functional; details: read-out: AC50
[30] = target: Cytochrome P450 2D6 (Homo sapiens, UniProt P10635);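 further: CYP2D6 member of a cytochrome P450 panel assay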
[31] = Luminescence Cell-Based Dose Retest to Confirm Inhibitors of Cancer Stem Cells. [Related pubchem assays (depositor defined):AID2717, AID2721]; type: functional; details: Homo sapiens

T1 sequence (P08659 whole entry): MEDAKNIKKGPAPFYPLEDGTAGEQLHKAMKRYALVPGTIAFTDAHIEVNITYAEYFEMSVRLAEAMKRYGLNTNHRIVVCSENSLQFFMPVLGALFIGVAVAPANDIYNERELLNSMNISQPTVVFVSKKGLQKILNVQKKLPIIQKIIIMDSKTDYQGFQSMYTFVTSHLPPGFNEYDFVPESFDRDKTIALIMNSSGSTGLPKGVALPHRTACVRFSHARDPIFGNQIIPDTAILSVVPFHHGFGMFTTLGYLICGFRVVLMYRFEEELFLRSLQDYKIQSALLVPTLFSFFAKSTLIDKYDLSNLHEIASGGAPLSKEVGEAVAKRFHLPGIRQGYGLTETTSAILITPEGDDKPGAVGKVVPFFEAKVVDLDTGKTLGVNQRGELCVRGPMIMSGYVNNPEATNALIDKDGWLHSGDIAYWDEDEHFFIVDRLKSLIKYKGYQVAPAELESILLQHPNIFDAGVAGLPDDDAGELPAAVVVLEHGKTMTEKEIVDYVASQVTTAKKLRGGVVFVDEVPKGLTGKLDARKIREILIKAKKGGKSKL
Peroxisome proliferator-activated receptor gamma/Nuclear receptor coactivator 2, sequence (P37231 whole entry): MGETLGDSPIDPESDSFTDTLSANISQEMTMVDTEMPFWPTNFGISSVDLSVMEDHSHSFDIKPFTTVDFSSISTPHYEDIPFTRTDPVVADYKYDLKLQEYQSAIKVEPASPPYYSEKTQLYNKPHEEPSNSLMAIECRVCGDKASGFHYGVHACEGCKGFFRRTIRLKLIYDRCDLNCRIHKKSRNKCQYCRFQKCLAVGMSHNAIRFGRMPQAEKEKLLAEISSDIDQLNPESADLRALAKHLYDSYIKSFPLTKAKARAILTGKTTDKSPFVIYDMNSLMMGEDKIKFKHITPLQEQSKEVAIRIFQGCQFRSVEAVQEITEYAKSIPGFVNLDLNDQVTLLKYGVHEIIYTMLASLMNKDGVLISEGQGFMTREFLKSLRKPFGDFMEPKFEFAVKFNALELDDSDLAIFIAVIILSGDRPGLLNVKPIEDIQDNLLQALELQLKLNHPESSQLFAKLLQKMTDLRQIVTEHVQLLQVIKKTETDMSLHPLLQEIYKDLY
Peroxisome proliferator-activated receptor gamma/Nuclear receptor coactivator 2, sequence (Q15596 whole entry, further chain): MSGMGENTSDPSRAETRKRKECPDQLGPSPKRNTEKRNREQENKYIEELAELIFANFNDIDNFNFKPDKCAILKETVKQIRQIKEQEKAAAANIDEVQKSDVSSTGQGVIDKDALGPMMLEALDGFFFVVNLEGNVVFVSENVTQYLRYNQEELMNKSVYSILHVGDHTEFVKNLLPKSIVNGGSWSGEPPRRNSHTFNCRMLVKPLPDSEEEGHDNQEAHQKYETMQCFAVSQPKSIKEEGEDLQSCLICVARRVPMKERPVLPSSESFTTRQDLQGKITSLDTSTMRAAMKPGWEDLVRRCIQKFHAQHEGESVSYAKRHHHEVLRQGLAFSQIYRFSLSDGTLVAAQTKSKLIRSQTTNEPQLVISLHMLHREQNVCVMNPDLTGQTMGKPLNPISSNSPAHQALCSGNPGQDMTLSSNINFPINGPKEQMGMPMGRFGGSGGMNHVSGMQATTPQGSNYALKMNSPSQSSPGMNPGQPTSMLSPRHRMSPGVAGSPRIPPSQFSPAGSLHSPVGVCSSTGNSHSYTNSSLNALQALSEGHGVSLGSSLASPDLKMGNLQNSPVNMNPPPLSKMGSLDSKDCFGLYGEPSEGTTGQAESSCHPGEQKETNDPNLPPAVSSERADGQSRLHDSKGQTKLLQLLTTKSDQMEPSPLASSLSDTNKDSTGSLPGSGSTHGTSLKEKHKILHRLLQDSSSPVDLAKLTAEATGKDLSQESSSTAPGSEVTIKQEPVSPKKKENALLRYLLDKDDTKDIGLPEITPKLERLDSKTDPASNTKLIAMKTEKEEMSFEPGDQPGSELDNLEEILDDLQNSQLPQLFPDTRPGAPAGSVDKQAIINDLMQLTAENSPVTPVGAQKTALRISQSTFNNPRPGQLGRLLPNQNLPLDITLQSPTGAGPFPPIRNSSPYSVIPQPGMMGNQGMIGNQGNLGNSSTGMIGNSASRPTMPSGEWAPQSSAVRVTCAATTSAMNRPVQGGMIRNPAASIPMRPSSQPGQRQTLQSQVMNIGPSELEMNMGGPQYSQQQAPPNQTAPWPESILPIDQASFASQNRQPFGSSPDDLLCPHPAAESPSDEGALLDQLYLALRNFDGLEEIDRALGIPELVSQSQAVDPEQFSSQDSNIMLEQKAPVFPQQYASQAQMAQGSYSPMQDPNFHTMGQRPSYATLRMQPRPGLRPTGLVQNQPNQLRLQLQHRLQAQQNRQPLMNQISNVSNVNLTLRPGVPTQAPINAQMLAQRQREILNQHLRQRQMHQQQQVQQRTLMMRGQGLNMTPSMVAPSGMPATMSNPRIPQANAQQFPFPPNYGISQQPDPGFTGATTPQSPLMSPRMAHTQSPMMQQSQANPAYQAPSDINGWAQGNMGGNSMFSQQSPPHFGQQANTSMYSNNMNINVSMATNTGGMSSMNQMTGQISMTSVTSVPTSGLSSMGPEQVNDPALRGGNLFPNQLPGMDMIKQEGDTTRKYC
Peroxisome proliferator-activated receptor gamma/Nuclear receptor coactivator 1, sequence (P37231 whole entry): as the sequence (P37231 whole entry) above
Peroxisome proliferator-activated receptor gamma/Nuclear receptor coactivator 1, sequence (Q15788 whole entry, further chain): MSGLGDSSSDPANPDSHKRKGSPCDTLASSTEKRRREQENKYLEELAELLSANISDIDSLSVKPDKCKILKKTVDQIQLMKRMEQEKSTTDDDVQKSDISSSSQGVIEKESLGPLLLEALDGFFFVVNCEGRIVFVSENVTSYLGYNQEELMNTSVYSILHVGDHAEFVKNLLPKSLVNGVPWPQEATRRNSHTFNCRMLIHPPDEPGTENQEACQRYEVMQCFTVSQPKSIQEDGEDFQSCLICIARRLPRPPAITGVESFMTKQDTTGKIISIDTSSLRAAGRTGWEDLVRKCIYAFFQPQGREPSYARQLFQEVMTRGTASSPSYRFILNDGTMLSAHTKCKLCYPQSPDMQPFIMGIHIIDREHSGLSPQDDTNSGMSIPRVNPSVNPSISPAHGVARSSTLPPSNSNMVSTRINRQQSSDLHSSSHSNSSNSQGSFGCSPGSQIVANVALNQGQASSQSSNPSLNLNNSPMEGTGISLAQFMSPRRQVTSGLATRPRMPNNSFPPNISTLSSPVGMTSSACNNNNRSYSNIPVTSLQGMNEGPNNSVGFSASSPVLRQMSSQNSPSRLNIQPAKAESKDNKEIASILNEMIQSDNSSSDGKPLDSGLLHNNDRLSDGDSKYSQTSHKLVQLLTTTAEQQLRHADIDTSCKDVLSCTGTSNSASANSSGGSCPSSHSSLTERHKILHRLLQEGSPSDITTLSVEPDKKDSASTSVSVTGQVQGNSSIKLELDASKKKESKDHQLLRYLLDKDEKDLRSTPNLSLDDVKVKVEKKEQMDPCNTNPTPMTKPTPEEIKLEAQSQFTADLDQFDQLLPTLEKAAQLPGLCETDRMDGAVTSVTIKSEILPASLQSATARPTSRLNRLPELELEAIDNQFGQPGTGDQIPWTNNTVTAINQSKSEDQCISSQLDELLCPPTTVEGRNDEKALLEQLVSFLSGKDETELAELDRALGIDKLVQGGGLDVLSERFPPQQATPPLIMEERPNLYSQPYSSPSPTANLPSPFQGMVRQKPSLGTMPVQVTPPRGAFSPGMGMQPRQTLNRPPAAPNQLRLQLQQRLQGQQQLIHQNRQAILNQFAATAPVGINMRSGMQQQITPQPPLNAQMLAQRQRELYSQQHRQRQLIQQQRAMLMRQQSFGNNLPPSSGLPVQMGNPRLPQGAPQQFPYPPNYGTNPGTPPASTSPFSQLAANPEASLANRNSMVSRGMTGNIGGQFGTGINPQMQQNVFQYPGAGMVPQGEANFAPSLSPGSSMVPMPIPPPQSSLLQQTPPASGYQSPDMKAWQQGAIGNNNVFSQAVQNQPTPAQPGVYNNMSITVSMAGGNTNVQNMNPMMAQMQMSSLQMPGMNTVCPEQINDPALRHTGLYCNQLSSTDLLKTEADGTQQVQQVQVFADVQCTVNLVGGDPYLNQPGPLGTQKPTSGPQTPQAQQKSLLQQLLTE
Mitogen-activated protein kinase 10, sequence (P53779 whole entry): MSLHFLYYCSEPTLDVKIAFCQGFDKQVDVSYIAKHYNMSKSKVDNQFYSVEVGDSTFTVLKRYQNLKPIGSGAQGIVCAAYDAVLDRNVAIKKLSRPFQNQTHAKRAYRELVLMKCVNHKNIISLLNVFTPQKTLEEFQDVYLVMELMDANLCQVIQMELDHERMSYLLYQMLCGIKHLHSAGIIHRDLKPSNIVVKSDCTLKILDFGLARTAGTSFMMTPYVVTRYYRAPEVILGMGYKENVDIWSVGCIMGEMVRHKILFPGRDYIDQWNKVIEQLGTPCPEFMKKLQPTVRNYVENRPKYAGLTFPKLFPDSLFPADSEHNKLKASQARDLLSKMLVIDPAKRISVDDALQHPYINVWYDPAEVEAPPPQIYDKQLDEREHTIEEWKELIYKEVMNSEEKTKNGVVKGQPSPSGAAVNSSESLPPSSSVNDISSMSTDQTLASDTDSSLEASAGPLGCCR

O=C(Nc1cccc(O)c1)c1noc2c1CCCCC2
EC50 [1]: > 30 µM (not active) | EC50 [2]: > 100 µM (not active) | EC50 [3]: 2.87 µM (active) | EC50 [4]: 3.4 µM (active) | EC50 [5]: > 50 µM (not active) | EC50 [6]: 8.89 µM (active)

O=C(Nc1ncc(Br)s1)C(Cc1ccccc1)n1cccc1 (stereo not given)
EC50 [7]: 11.9 µM (active) | EC50 [8]: 13.2 µM (active) | EC50 [9]: 1.33 µM (active)

COc1ccc(CC(=O)Nc2nc3ccccc3s2)cc1S(=O)(=O)N1CCOCC1
IC50 [10]: 24.7 µM (not active)

O=C(Nc1ccc(OC(=O)c2ccccc2)c(-c2nc3ccccc3s2)c1)c1ccccc1
EC50 [11]: 18.2 µM (active) | IC50 [12]: 18.5 µM (not active) | EC50 [13]: 24.2 µM (active) | CC50 [14]: > 40 µM (active)

COc1ccc(CC(=O)NC(C)c2nnc(SCCOc3ccc(OC)cc3)n2C)cc1 (stereo not given)
AC50 [15]: 24.2 µM (active)

CC(=O)Nc1ccc(S(=O)(=O)N2CCC(n3cnc4cc(F)ccc43)CC2)cc1
IC50 [10]: 32.2 µM (not active)

COc1cccc(-c2nn(C)c3sc(C(=O)N4CCN(c5ccccn5)CC4)cc23)c1
EC50 [7]: 15.2 µM (active) | EC50 [8]: 14 µM (active)

O=C(Nc1cnc2ccccn2c1=O)c1ccc(F)cc1
IC50 [16]: > 50 µM (not active)

COc1ccc(Cn2c(C)c(C)c(C#N)c2NC(=O)Nc2cccc(C)c2)cc1
IC50 [16]: > 50 µM (not active)

Cc1csc(SCC(=O)Nc2ccc(Cl)cn2)n1
EC50 [17]: 1.54 µM (active)

C=CCn1c(=O)c2ccccc2n2c(SCC(=O)c3ccccc3)nnc12
EC50 [18]: > 79.4 µM (not active) | EC50 [19]: > 79.4 µM (not active) | EC50 [20]: > 79.4 µM (not active)

Cc1ccc(-c2nc3cc(N)ccc3o2)c(C)c1
EC50 [2]: 1.95 µM (active) | EC50 [5]: > 50 µM (not active)

Cc1cccc(NC(=O)c2nc[nH]c2C(=O)N[C@@H](CC(C)C)C(=O)OCc2ccccc2)c1
EC50 [21]: > 150 µM (not active) | EC50 [22]: 2.12 µM (active) | EC50 [23]: 3.95 µM (active) | CC50 [14]: 22.4 µM (active)

Cc1cc(C(=O)NNS(=O)(=O)c2cc(C(=O)O)ccc2Cl)c(C)n1-c1ccccc1
AC50 [24]: > 70 µM (inactive) | AC50 [25]: 16.9 µM (active) | AC50 [26]: 23.2 µM (active) | AC50 [27]: 25.7 µM (active)

COc1cc(C(=O)NCc2cn3ccccc3n2)cc(OC)c1OC
IC50 [10]: 7.87 µM (active)

COC(=O)c1ccc(S(=O)(=O)c2ccc(C(=O)OC)s2)s1
EC50 [18]: 27.1 µM (not active) | EC50 [19]: 36.7 µM (not active) | EC50 [20]: 24.6 µM (not active)

O=C(O)CCCC(=O)Nc1cc([N+](=O)[O-])ccc1O
EC50 [18]: > 79.4 µM (not active) | EC50 [19]: > 79.4 µM (not active) | EC50 [20]: > 79.4 µM (not active)

O=C(/C=C/c1ccccc1[N+](=O)[O-])c1ccc(F)cc1
CC50 [14]: > 40 µM (active)

O=C(c1ccncc1)N1CCCCN2[C@H](C1)[C@H](c1ccc(C#Cc3ccccn3)cc1)[C@@H]2CO
AC50 [26]: 50.4 µM (active)

Oc1oc(-c2ccccc2)nc1/C=N/c1nccs1
EC50 [17]: 12.3 µM (not active)

CC(/C=C/c1cccc([N+](=O)[O-])c1)=N/NC(=O)c1cccnc1
EC50 [17]: > 91.6 µM (not active)

CC(C)(Sc1ccc(CCN(CCCCC2CCCCC2)C(=O)NC2CCCCC2)cc1)C(=O)O [GW7647]
AC50 [28]: 39.8 µM (inconclusive) | AC50 [29]: 25.1 µM (inconclusive) | AC50 [30]: inconclusive | AC50 [31]: 4.46 µM (active) | AC50 [15]: 7.9 µM (active)

Reference: ChEMBL document CHEMBL1201862, “PubChem BioAssay data set” (2004)
